Test results as given in patent publication US20170202932A1, “METHODS FOR INHIBITING NEURON APOPTOSIS AND NECROSIS” (NEWSOUTH INNOVATIONS PTY LIMITED, priority 2012, published 2017).

Assays:
[1] = test system: mouse cerebellar brain slices; assay: Oxygen glucose deprivation (OGD) in organotypic cerebellar brain slices, propidium iodide staining; type: cell-based; conditions: genistein 200 μM
Procedure: TRPC3c-mediated brain injury arising from transient oxygen glucose deprivation (OGD) was evaluated in organotypic cerebellar brain slices using the TRPC channel blocker Genistein. The brain slices (400 μm) were prepared as described in Example 5. Mice ([…] strain, 6-8 weeks old) were anaesthetized with pentobarbital and decapitated. The brain was removed and submerged in ice cold modified artificial cerebral spinal fluid (ACSF) solution containing 4 mM KCl, 5 mM MgCl2, 1 mM CaCl2, 26 mM NaHCO3, 10 mM glucose, 246 mM sucrose equilibrated with 95% CO2, 5% O2. Slices were cut with a VT1200 vibratome (Leica, Germany) and were allowed to recover in culture medium (75% Minimum Essential Medium (MEM), 25% heat-inactivated horse serum, 25 mM HEPES, 1 mM glutamine, 27.7 mM glucose) for at least 1 h in a tissue culture incubator (37° C., 5% CO2 in air). Hurtado de Mendoza et al. (2011) J Vis Exp. (51). (pii):2564).
For OGD-induced neuronal loss, the brain slices were placed in an anaerobic chamber (Coy Laboratory Products, USA; 100% N2) in OGD medium (75% MEM, 25% Hanks Buffered Salt Solution, 1 mM glutamine) Radley et a. (2012). Neurosci Lett. 506 (1):131-5). Controls included slices placed directly into culture medium in a tissue culture incubator (37° C., 5% CO2 in air). Slices were exposed to OGD for 0, 15 and 30 minutes, with or without 200 μM genistein (n=2 for each condition). […]

[2] = molecular target: T1, recombinant mouse TRPC3c channels (Mus musculus, UniProt Q9QZC1, DEL811-838); assay: Indo-1 ratiometric Ca2+ imaging of CCh-activated Ca2+ entry, HEK293 cells expressing TRPC3c; type: cell-based; conditions: genistein 200 μM pre-incubation, n=5, without genistein 575.6±44.2 nM
T1 construct: expressed in transfected cells; host or cells: HEK293 cells, stably transfected (pIRES-DsRed2 vector)
T1 sequence (Q9QZC1 with tags, fused parts or gaps DEL811-838): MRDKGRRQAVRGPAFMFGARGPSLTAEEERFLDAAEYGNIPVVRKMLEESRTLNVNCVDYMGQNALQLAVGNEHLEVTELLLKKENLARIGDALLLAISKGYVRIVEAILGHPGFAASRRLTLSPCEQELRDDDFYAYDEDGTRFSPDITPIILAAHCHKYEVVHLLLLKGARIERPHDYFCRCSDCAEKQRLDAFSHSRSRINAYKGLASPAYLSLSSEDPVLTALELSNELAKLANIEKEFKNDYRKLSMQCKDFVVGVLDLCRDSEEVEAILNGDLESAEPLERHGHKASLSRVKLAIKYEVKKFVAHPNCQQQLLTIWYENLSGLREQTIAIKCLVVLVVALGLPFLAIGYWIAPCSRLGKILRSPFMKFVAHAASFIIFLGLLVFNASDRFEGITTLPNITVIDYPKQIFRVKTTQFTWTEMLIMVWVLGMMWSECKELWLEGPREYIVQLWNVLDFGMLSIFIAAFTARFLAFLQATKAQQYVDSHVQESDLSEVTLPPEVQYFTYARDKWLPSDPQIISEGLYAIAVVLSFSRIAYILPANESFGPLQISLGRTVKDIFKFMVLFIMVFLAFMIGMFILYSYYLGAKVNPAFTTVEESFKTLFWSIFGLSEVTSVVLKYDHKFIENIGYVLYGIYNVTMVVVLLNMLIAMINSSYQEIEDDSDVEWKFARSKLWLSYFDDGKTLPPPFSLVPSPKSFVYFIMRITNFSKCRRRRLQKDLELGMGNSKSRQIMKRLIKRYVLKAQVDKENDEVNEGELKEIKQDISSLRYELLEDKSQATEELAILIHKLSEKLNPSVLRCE
Procedure: The TRPC3-mediated Ca^2+ entry through two distinct activation pathways was assessed by microfluorometric Ca^2+ imaging: i) Ca^2+ entry via the M3 receptor-PLCB-DAG pathway endogenous to HEK293 cells, using Indo-1 as a Ca^2+ indicator; and ii) Ca^2+ entry via mGluR1-PLCB-DAG through co-expression of the mGluR1, using Fluo-4 as a Ca^2+ indicator.
Cells were grown in DMEM media on 18 mm circular coverslips coated with poly-D-lysine (25 μg/ml) and collagen (25 μg/ml) at 1:1 ratio. The cells were washed with HPSS. The coverslips were then incubated with HPSS and 0.1% pluronic acid, along with either 1 μM Indo-1AM or Fluo-4AM Ca^2+ indicator (Invitrogen, U.S.A.) for an hour prior to the experiment. The cells were then placed into HPSS with 5 μM GdCl3 to block endogenous Ca^2+ entry (added to all superfusions). The M3 AChR-mediated TRPC3 activation was achieved by bath application of carbachol. The mGluR1-mediated TRPC3 activation was achieved by bath application of DHPG.
For Indo-1 experiments, the cells were mounted on a Nikon TMD inverted microscope fitted with an Indo-1 filter set (Nikon Indo-1 filter cube, 485 nm/DM455 nm/405 nm) and illuminated with a mercury lamp. Cells were excited at 350 nm, with dual emission of the field was detected at 410 nm and 480 nm using two photomultiplier tubes, and the ratioed emission was determined in real-time using in-house software. […]

peak [Ca2+] on return of extracellular Ca2+ (CCh-activated Ca2+ entry) [2]: 81.9 ± 19.8 nM
Structure (SMILES): O=c1c(-c2ccc(O)cc2)coc2cc(O)cc(O)c12 [genistein, 4′, 5,7-trihydroxyisoflavone]
propidium iodide fluorescence in granule cell layer and molecular layer after OGD [1]: reduced propidium iodide fluorescence
neuronal loss and oedema in the Purkinje cell layer after OGD ([1]; 15 mins and 30 mins OGD, n=2 slices per condition): provided protection from the neuronal loss and oedema in the PCL
